In publication PMC6974402 (Nature, 2019):

Experiments:
SAP1 = target: T1, SAP1 (Anopheles gambiae, UniProt Q7Q3U7); assay: 1-NPN fluorescence displacement; format: binding
T1 sequence (Q7Q3U7 18-127): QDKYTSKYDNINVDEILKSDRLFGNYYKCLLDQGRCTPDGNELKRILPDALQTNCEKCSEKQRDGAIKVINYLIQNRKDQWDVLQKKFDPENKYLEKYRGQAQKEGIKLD

SAP3 = target: T2, SAP3 (Anopheles gambiae, UniProt Q6H8Z2); assay: 1-NPN fluorescence displacement; format: binding
T2 sequence (Q6H8Z2 18-126): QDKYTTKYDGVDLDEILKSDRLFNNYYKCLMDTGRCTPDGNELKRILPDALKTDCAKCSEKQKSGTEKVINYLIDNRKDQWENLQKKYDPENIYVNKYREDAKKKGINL

CC1(C)C(C=C(Cl)Cl)C1C(=O)OC(C#N)c1cccc(Oc2ccccc2)c1 (stereo not drawn) [α-cypermethrin]
IC50 (SAP1): 9.02 µM

CC1(C)[C@H](C(=O)O[C@H](C#N)c2cccc(Oc3ccccc3)c2)[C@@H]1C=C(Br)Br [deltamethrin]
IC50 (SAP3): > 10 µM
IC50 (SAP1): > 10 µM
